Test results published in patent US12486267B2, “Imidazo[1,2-A]pyridine and [1,2,4]triazolo[1,5-A]pyridine derivatives as TLR9 inhibitors for the treatment of fibrosis” (BRISTOL-MYERS SQUIBB COMPANY, priority 2020, dated 2025).

Key:
Type in all cases: cell-based
[1] = target: T1, human TLR9 (Homo sapiens, UniProt Q9NR96); test: TLR9 inhibition reporter assay (HEK-Blue cells, SEAP reporter); conditions: HEK-Blue cells overexpressing human TLR9; stimulated with ODN2006 5 nM; 22 hour incubation; SEAP readout
T1 sequence (Q9NR96 26-1032): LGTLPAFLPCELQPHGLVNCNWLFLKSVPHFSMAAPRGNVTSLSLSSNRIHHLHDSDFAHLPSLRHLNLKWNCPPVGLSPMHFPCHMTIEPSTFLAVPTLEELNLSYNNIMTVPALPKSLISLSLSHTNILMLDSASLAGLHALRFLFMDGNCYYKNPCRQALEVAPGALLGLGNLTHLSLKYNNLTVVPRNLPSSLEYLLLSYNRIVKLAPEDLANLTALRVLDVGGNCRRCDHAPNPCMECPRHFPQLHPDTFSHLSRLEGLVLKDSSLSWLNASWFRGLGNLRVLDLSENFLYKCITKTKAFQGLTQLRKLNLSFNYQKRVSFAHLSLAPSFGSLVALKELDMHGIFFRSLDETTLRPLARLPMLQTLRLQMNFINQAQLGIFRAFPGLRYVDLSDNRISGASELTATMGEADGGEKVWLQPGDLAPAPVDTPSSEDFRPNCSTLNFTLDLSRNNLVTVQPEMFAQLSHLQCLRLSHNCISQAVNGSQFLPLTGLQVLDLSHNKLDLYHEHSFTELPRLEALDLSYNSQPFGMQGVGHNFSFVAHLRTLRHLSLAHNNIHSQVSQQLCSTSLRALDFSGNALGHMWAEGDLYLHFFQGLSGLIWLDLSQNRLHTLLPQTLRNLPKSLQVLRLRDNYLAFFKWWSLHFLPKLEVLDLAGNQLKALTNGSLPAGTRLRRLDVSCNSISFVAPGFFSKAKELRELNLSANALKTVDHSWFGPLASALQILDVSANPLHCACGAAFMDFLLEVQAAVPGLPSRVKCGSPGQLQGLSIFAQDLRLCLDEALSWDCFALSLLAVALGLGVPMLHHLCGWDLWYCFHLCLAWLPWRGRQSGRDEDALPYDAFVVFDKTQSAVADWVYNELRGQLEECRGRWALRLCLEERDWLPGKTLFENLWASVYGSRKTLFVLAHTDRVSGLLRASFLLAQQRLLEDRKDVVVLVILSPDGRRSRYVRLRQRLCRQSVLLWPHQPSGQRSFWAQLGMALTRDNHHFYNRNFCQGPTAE
Method in brief: (§1)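 HEK-Blue cells with NF-κB/AP-1-driven SEAP pre-treated 30 min with compound (0.05 nM–50 μM), then stimulated with gardiquimod 7.5 μM (TLR7), R848 15.9 μM (TLR8) or ODN2006 5 nM (TLR9). SEAP detected after 22 h at 37 °C; percent inhibition relative to agonist-plus-DMSO and known-inhibitor wells.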

[2] = target: T2, human TLR7 (Homo sapiens, UniProt Q9NYK1); test: TLR7 inhibition reporter assay (HEK-Blue cells, SEAP reporter); conditions: HEK-Blue cells overexpressing human TLR7; stimulated with gardiquimod 7.5 μM; 22 hour incubation; SEAP readout
T2 sequence (Q9NYK1 27-1049): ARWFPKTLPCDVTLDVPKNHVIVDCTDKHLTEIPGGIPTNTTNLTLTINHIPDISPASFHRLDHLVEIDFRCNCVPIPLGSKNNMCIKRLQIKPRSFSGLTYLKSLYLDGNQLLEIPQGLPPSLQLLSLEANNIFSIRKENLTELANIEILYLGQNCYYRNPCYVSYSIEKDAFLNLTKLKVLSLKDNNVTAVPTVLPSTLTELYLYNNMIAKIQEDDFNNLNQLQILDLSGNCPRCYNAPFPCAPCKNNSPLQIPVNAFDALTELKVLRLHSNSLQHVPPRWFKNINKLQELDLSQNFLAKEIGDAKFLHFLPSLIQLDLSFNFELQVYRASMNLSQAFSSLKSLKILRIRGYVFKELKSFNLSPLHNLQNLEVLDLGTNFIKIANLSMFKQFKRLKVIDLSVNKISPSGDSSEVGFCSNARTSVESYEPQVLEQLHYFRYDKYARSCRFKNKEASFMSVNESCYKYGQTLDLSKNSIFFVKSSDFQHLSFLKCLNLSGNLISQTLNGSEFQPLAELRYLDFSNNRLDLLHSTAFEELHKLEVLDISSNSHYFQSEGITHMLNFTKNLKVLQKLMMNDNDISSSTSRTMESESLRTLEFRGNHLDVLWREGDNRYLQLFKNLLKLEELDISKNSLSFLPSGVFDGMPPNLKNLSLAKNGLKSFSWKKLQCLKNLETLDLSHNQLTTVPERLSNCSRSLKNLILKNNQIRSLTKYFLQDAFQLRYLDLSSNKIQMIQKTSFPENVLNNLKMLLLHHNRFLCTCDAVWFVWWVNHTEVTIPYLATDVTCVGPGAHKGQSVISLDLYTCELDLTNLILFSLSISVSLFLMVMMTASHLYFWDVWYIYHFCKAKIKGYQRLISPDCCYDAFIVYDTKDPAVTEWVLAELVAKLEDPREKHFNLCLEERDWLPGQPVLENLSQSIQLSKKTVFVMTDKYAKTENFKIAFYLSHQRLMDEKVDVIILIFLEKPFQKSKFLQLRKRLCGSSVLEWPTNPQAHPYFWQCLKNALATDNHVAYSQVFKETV
Method in brief: as §1

[3] = target: T3, human TLR8 (Homo sapiens, UniProt Q9NR97); test: TLR8 inhibition reporter assay (HEK-Blue cells, SEAP reporter); conditions: HEK-Blue cells overexpressing human TLR8; stimulated with R848 15.9 μM; 22 hour incubation; SEAP readout
T3 sequence (Q9NR97 27-1041): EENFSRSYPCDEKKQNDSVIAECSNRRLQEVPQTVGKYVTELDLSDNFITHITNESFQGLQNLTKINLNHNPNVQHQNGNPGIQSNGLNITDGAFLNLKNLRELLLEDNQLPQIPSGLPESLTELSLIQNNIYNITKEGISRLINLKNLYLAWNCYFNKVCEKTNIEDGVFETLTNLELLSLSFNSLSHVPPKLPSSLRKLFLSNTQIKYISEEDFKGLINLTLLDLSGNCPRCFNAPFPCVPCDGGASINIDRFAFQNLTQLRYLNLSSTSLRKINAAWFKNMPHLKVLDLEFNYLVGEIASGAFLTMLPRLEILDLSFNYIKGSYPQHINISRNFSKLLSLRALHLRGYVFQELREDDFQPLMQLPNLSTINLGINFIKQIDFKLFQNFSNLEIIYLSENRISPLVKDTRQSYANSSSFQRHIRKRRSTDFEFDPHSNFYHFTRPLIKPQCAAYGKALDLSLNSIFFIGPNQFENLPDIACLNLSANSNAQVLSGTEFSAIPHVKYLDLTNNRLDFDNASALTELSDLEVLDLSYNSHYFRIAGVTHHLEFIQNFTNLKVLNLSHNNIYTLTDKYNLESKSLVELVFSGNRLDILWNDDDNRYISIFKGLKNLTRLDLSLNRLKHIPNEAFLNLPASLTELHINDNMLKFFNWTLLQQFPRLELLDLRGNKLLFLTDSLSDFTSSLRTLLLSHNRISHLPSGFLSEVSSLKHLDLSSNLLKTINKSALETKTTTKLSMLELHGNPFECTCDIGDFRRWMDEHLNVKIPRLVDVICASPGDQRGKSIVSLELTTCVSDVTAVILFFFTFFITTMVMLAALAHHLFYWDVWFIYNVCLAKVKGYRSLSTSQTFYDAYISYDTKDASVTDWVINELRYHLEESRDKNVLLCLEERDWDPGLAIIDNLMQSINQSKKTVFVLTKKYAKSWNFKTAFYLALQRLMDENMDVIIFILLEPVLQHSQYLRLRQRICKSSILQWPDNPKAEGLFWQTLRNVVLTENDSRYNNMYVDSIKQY
Method in brief: as §1

Row | IC50 [1] | IC50 [2] | IC50 [3] | SMILES
1 | 0.252 µM | 16 µM | > 50 µM | COc1ccc(-c2cn3cc(C4CCN(C5CCN(CC(C)C)CC5)CC4)cc(C)c3n2)cc1F [Example 6, 2-(3-fluoro-4-methoxyphenyl)-6-(1′-isobutyl-[1,4′-bipiperidin]-4-yl)-8-methylimidazo[1,2-a]pyridine]
2 | 0.052 µM | > 50 µM | > 50 µM | CC(C)CN1C2CCC1CC(N1CCC([C@H]3CCc4nc(-c5ccc(S(C)(=O)=O)cc5)cn4C3)CC1)C2 (single isomer, unassigned) [Example 80]
3 | 0.0078 µM | 7.4 µM | 46.7 µM | CC(C)CN1CCCC(N2CCC(c3cc(F)c4nc(-c5ccc(S(C)(=O)=O)cc5)cn4c3)CC2)CC1 (single isomer, unassigned) [Example 126, 8-fluoro-6-(1-(1-isobutylazepan-4-yl)piperidin-4-yl)-2-(4-(methylsulfonyl)phenyl) imidazo[1,2-a]pyridine]
4 | 0.033 µM | 10.7 µM | > 50 µM | CS(=O)(=O)c1ccc(-c2cn3c(n2)CC[C@H](C2CCN(C4CC5CCC(C4)N5CC4CC4)CC2)C3)cc1 (single isomer, unassigned) [Example 139]
5 | 0.042 µM | 3.9 µM | > 25 µM | COc1ccc(-c2cn3c(n2)CC[C@H](C2CCN(C4CC5CCC(C4)N5C(C)C)CC2)C3)cc1OC (single isomer, unassigned) [Example 135]
6 | 0.122 µM | 2.7 µM | > 50 µM | COc1ccc(-c2cn3cc(C4CCN(C5CCN(CC(C)C)CC5)CC4)ccc3n2)cc1OC [Example 12, 2-(3,4-dimethoxyphenyl)-6-(1′-isobutyl-[1,4′-bipiperidin]-4-yl)imidazo[1,2-a]pyridine]
7 | 0.046 µM | 3 µM | > 25 µM | COc1ccc(-c2cn3c(n2)CC[C@@H](C2CCN(C4CC5CCC(C4)N5C(C)C)CC2)C3)cc1OC (single isomer, unassigned) [Example 137]
8 | 0.011 µM | 3.4 µM | > 50 µM | CS(=O)(=O)c1ccc(-c2cn3cc(C4CCN(C5CC6CCC(C5)N6C5CCOCC5)CC4)cc(F)c3n2)cc1 (single isomer, unassigned) [Example 121, 8-fluoro-2-(4-(methylsulfonyl)phenyl)-6-(1-(8-(tetrahydro-2H-pyran-4-yl)-8-azabicyclo[3.2.1]octan-3-yl)piperidin-4-yl) imidazo[1,2-a]pyridine]
9 | 0.034 µM | > 50 µM | > 50 µM | Cc1cc(C2CCN(C3CCN(CC(C)C)CC3)CC2)cn2nc(-c3ccc(S(C)(=O)=O)cc3)nc12 [Example 163, 6-(1′-isobutyl-[1,4′-bipiperidin]-4-yl)-8-methyl-2-(4-(methylsulfonyl)phenyl)-[1,2,4]triazolo[1,5-a]pyridine]
10 | 0.166 µM | 3 µM | > 50 µM | COc1ccc(-c2cn3cc(C4CCN(C5CCN(C(C)C)CC5)CC4)cc(C)c3n2)cc1F [Example 5, 2-(3-fluoro-4-methoxyphenyl)-6-(1′-isopropyl-[1,4′-bipiperidin]-4-yl)-8-methylimidazo[1,2-a]pyridine]
11 | 0.022 µM | 1.8 µM | > 50 µM | COc1ccc(-c2cn3c(n2)CCC(C2CCN(C4CC5(C4)CN(C4CCC4)C5)CC2)C3)cc1OC (single isomer, unassigned) [Example 49, 6-(1-(2-cyclobutyl-2-azaspiro[3.3]heptan-6-yl)piperidin-4-yl)-2-(3,4-dimethoxyphenyl)-5,6,7,8-tetrahydroimidazo[1,2-a]pyridine]
12 | 0.066 µM | 2 µM | 17 µM | CC(C)CN1C2CCC1CC(N1CCC(c3cc(F)c4nc(-c5ccc(S(C)(=O)=O)cc5)cn4c3)CC1)C2 (single isomer, unassigned) [Example 114, 8-fluoro-6-(1-(8-isobutyl-8-azabicyclo[3.2.1]octan-3-yl)piperidin-4-yl)-2-(4-(methylsulfonyl)phenyl)imidazo[1,2-a]pyridine]
